Measurements taken from US20240173231A1, “COSMETIC SKIN CARE COMPOSITION” (Conopco, Inc., d/b/a UNILEVER, priority 2021, published 2024).
Marks after values point to notes of the source that are not given here.

Legend:
Assay type in all cases: cell-based, human
procollagen-I = assay: Procollagen type 1 C-peptide (PIP) EIA on media of dermal fibroblasts on soft hydrogel; conditions: for Procollagen: day 6; for Effect on procollagen-I synthesis in human dermal fibroblasts, in words: substrates mimicking the biomechanical properties of skin
Procedure: Since YAP activity is highly dependent on substrate rigidity it was necessary to develop and perform assays on substrates with tunable mechanical properties.
Primary human dermal fibroblasts (P3) are plated at 31,579 cells per cm2 into 24-well […] collagen coated hydrogel plates in 1 ml 2% fetal bovine serum in Dulbecco's Modified Eagles Media (DMEM) and maintained 24 hours in a cell culture incubator at 5% carbon dioxide. The cells were washed twice with Dulbecco's Phosphate Buffered Saline then 1 ml of DM EM supplemented with 0.6% fatty acid free bovine serum albumin. The cells were maintained for 24 hours in a cell culture incubator at 5% carbon dioxide.
Two hundred microliter of media was removed from each well. To each well were added 100 ul of 500 ug per ml ascorbic acid in DMEM supplemented with 0.6% fatty acid free bovine serum albumin. Test materials were diluted to 10X final concentration in DMEM supplemented with 0.6% fatty acid free bovine serum albumin or PBS supplemented with 0.1% fatty acid free bovine serum albumin and 100 ul dosed to duplicate wells. The cells/plates were incubated for 3 days at 37° C., 5% CO2 in a cell culture incubator. On day 3 the media was removed from the wells and 900u1 DMEM supplemented with 0.6% fatty acid free bovine serum albumin plus 50 ug/ml ascorbic acid. The treatments were added as described above. On day 6 after the start of treatment remove 100 ul of the media from each well for the determination of the level of procollagen.
The amount of procollagen in the media samples was determined using the Takara Bio Procollagen type 1 C-peptide (PIP) detection EIA assay. The assay was run following the manufacturer's instructions as following—100 ul of the reconstituted antibody-POD conjugate to the wells of the assay for the number required for the media samples and the standard curve. The procollagen standard solution was 2-fold serial diluted using sample diluent to generate a standard curve of 640, 320, 160, 80, 40, 20, 10 and 0 ng/ml procollagen. The media samples were diluted 1/20 with sample diluent. Twenty ul of the standard curve dilutions were added to the wells of the assay plate in duplicate. The 20 ul media dilutions in sample diluent were added to the wells of the assay plate in singlet. The plate was incubated for 3 hours at 37° C., washed 4 times with phosphate buffered saline wash buffer and tapped to remove all residual wash buffer. One hundred ul of substrate solution (TMBZ) was added to each well and incubate 15 minutes. One hundred ul of stop solution was added to each well, the plate shaken to mix and the optical density at 450 nm read in a plate reader. The amount of procollagen in the test samples was calculated from the standard curve values and corrected for the dilution factor and the volume in the well to generate the ng of procollagen in the samples. The amount of procollagen induced by the test materials was compared to the basal media.

COL1A1 = assay: mRNA gene expression in dermal fibroblasts on 2 kPa hydrogel (RNA-seq); conditions: vs. Vehicle
Procedure: (§1) Primary human dermal fibroblasts (P3) are plated at 31,579 cells per cm^2 into 6-well 2 kPa hydrogel collagen coated plates in 2 ml 2% fetal bovine serum in Dulbecco's Modified Eagles Media (DMEM) and maintained 24 hours in a cell culture incubator at 5% carbon dioxide. The cells were washed twice with Dulbecco's Phosphate Buffered Saline DPBS) then 1 ml of DMEM supplemented with 0.6% fatty acid free bovine serum albumin (FAF-BSA). The cells were maintained for 24 hours in a cell culture incubator at 5% carbon dioxide. Four hundred ul of media was removed from each well of the plates. Two hundred ul of the YAP active treatments diluted at 10X the desired final concentration plus 1% DMSO were diluted in DMEM supplemented with 0.6% fatty acid free bovine serum albumin. The control wells were treated with two hundred ul of 1% DMSO were diluted in DMEM supplemented with 0.6% fatty acid free bovine serum albumin. Two hundred ul of water-soluble YAP actives diluted at 10X the desired final concentration diluted in DPBS+0.1% FAF-BSA. The controls wells were treated with 200 ul DPBS+0.1% FAF-BSA. The plates were incubated overnight at 37° C. at 5% CO2. In the AM the plates were dosed with the 220 ul of the water-soluble YAP actives in DPBS +0.1% FAF-BSA or the control well with 220 ul DPBS +0.1% FAF-BSA. After 6 hours the media was aspirate from the wells, the cells washed 2X with DPBS and the plate frozen at -80 °C until the RNA was isolated.
(§2) The RNA was isolated using the Qiagen RNeasy mini kit following the manufacturer's instruction with the following modifications—
(§3) 700 ul of RLT buffer plus beta-mercaptoethanol was added to each well immediately after removing the plate from the freezer. The plate was placed on an orbital shaker at 500 revolution per minute up for 15 minutes while the buffer thawed and extracted the cells. The cell lysate was transfer to Qiashedders and pass the Qiashedder to disrupt the cells. The recovery lysate was mixed with an equal volume of 70% Ethanol, 30% water. The RNA was purified on the minicolumns including the DNase step to remove DNA contamination. The RNA samples were quantitated on a NanoDrop 800 and quantity access on an Agilent Bio-analyzer. An aliquot of the RNA samples was reverse transcribed in cDNA then diluted to 5 ng/ul of input RNA. The cDNA samples were evaluated for the expression level of select markers using comparative Taqman analysis using 2 ul of the cDNA per reaction. The level of RNA expression was compared using the delta delta Cycle threshold (ddCt) method. Aliquot of the RNAs were also submitted to Lexogen (Vienna, Austria) for RNA-seq analysis.
(§4) Shown in Table 5 is the average percent increase in mRNA expression for genes involved in extracellular matrix production following ORG treatment relative to the vehicle control, along with the Benjamini-Hochberg adjusted p-values (adj.p.value) calculated by converting the average log2fold-change (calculated using DESeq2) to a percentage increase using the following formula: Percent increase=100*(2^log2FC)-100.

COL3A1 = assay: as above; conditions: vs. Vehicle
Procedure: as §1, §2, §3, §4

COL4A1 = assay: as above; conditions: vs. Vehicle
Procedure: as §1, §2, §3, §4

COL5A1 = assay: as above; conditions: vs. Vehicle
Procedure: as §1, §2, §3, §4

ELN = assay: as above; conditions: vs. Vehicle
Procedure: as §1, §2, §3, §4

FBN1 = assay: as above; conditions: vs. Vehicle
Procedure: as §1, §2, §3, §4

FN1 = assay: as above; conditions: vs. Vehicle
Procedure: as §1, §2, §3, §4

HAS2 = assay: as above; conditions: vs. Vehicle
Procedure: as §1, §2, §3, §4

[1] = test system: CRABPII (cellular retinoic acid binding protein II); assay: CRABPII gene expression by TaqMan real time PCR in dermal fibroblasts
Procedure: as §1
700 ul of RLT buffer plus beta-mercaptoethanol was added to each well immediately after removing the plate from the freezer. The plate was placed on an orbital shaker at 500 revolution per minute up for 15 minutes while the buffer thawed and extracted the cells. […] The RNA samples were quantitated on a NanoDrop 800 and quantity access on an Agilent Bio-analyzer. […] The cDNA samples were evaluated for the expression level of select markers using comparative Taqman analysis using 2 ul of the cDNA per reaction. […]
An independent experiment was conducted using cell culture and RNA isolation methods described in Example 2 to further elucidate the retinyl propionate+ORG synergy (as observed in Table 4) by analyzing a well-described marker of a retinoid activity CRABPII (cellular retinoic acid binding protein II). […] Then, 10 ng cDNA samples per reaction were evaluated for the expression level of CRABPII using primers and comparative TaqMan™ Gene Expression Assay and TaqMan™ Fast Advanced Master (FAM) Mix (purchased from Applied Biosystems™) and run in a ViiA™ 7 Real Time PCR System (from Applied Biosystems™). Percent increases in CRABPII expression was calculated by converting the log2fold-change to a percentage increase using the following formula: Percent increase=100*(2^log2FC)-100.

YAP/TAZ = assay: Nuclear translocation assay to identify activators of YAP/TAZ bioactivity, fibroblasts on fibronectin micro-islands; conditions: for Mechano-transduction Activation (% Increase): 20 uM, 2 hours, YAP/TAZ nucleus/cytoplasm ratio normalised to control and LPA; for Induction of mechano-transduction signaling (translocation of cytoplasmic YAP/TAZ into the nucleus), in words: over the vehicle DMSO
Procedure: Cellular localization of YAP can be regulated by the rigidity of the substrate or ECM that cells are attached to, or the degree to which cells can spread on a substrate. Thus in vitro models can be useful to engineer low states of YAP activity.
Briefly, primary human dermal fibroblasts were seeded on microprinted substrate islands (<1000 μm^2) of fibronectin and incubated overnight at 37° C., 5% CO2 in a cell culture incubator. Next, fibroblasts were treated with materials described in Table 1. After the treatment period of 2 hours, cells were fixed and stained: nuclei were stained with Hoechst dye and YAP/TAZ was stained with a mouse antibody to YAP/TAZ (Santa Cruz Biotechnology), followed by the secondary fluorescently tagged antibody (donkey anti-mouse AlexaFluor 488). Microscopic images were acquired and YAP/TAZ fluorescent signal measured in the cytoplasm and nucleus of each cell. The fluorescence intensity measured in the nucleus is divided by the one measured in the cytoplasm to obtain the YAP/TAZ ratio readout as described below Table 1.

[2] = Experiment 2, 50 μM, vehicle control 2240.5
[3] = Experiment 1, 50 μM, vehicle control 1933.3

Compound: C=CCc1ccc(O)c(-c2cc(CC=C)ccc2O)c1 [Magnolol]
- Procollagen (procollagen-I; [2]): 2512.8 ng/mL
- Effect on procollagen-I synthesis in human dermal fibroblasts, in words (procollagen-I): do not exhibit such a pronounced effect

Compound: oleoyl-rac-glycerol [ORG (Monomuls ®)]
- Procollagen (procollagen-I; [3]): 3084.2 ng/mL
- Procollagen (procollagen-I; [2]): 3256.8 ng/mL
- Procollagen (procollagen-I; Experiment 3, 50 μM, vehicle control 1301.9): 2275.4 ng/mL
- Effect on procollagen-I synthesis in human dermal fibroblasts, in words (procollagen-I): promotes the synthesis of procollagen-I
- COL1A1 mRNA expression, Percent Increase (COL1A1): 21.16%
- COL3A1 mRNA expression, Percent Increase (COL3A1): 15.35%
- COL4A1 mRNA expression, Percent Increase (COL4A1): 20.36%
- COL5A1 mRNA expression, Percent Increase (COL5A1): 10.73%
- ELN mRNA expression, Percent Increase (ELN): 18.49%
- FBN1 mRNA expression, Percent Increase (FBN1): 12.36%
- FN1 mRNA expression, Percent Increase (FN1): 15.49%
- HAS2 mRNA expression, Percent Increase (HAS2): 164.75%
- Effect on CRABPII gene expression, in words [1]: more modest increase
- Percent Increase in CRABPII Gene Expression vs Vehicle ([1]; 50 μM): 54%

Compound: CCCCCCCCCCCCCCC(=O)OCC(O)CO (racemic) [1-Pentadecanoyl-rac-glycerol]
- Mechano-transduction Activation (% Increase) (YAP/TAZ): 25 +/− 26%
- Induction of mechano-transduction signaling (translocation of cytoplasmic YAP/TAZ into the nucleus), in words (YAP/TAZ): do not induce mechano-transduction

Compound: CCCCCCCC/C=C\CCCCCCCC(=O)OCC(O)CO (racemic) [1-oleoyl-rac-glycerol]
- Mechano-transduction Activation (% Increase) (YAP/TAZ): 17 +/− 10 ** %
- Induction of mechano-transduction signaling (translocation of cytoplasmic YAP/TAZ into the nucleus), in words (YAP/TAZ): significantly induces mechano-transduction signaling

Compound: CCC(=O)OC/C=C(C)/C=C/C=C(C)/C=C/C1=C(C)CCCC1(C)C [retinyl propionate]
- Procollagen (procollagen-I; Experiment 3, 10 μM, vehicle control 1301.9): 1452.0 ng/mL
- Effect on procollagen-I synthesis in human dermal fibroblasts, in words (procollagen-I): do not exhibit such a pronounced effect
- Effect on CRABPII gene expression, in words [1]: robust increase in CRABPII gene expression
- Percent Increase in CRABPII Gene Expression vs Vehicle ([1]; 10 μM): 138%

Compound: CC(C)c1cc2c(cc1O)[C@@]1(C)CC[C@H](O)C(C)(C)[C@@H]1CC2 [Hinokiol]
- Procollagen (procollagen-I; [3]): 1946.1 ng/mL
- Procollagen (procollagen-I; [2]): 1843.5 ng/mL
- Effect on procollagen-I synthesis in human dermal fibroblasts, in words (procollagen-I): do not exhibit such a pronounced effect

Compound: CCCCCCCCCCCCCCCCCC(=O)OCC(O)CO (racemic) [1-Stearoyl-rac-glycerol]
- Mechano-transduction Activation (% Increase) (YAP/TAZ): 6 +/− 7%
- Induction of mechano-transduction signaling (translocation of cytoplasmic YAP/TAZ into the nucleus), in words (YAP/TAZ): do not induce mechano-transduction

Compound: CCCCCCCC/C=C\CCCCCCCC(=O)OC[C@@H](O)COP(=O)([O-])O.[Na+] [LPA, Lysophosphatidic acid]
- Mechano-transduction Activation (% Increase) (YAP/TAZ): 100 +/− 1 ** %
- Induction of mechano-transduction signaling (translocation of cytoplasmic YAP/TAZ into the nucleus), in words (YAP/TAZ): induces mechano-transduction signaling
- Procollagen (procollagen-I; Experiment 1, 30 μM, vehicle control 1933.3): 3532.6 ng/mL
- Procollagen (procollagen-I; Experiment 2, 30 μM, vehicle control 2240.5): 3381.3 ng/mL

Compound: CCCCCCCC/C=C\CCCCCCCC(=O)NCC(=O)O [Oleoyl Glycinate]
- Procollagen (procollagen-I; [3]): 2474.9 ng/mL
- Effect on procollagen-I synthesis in human dermal fibroblasts, in words (procollagen-I): do not exhibit such a pronounced effect
